Results as given in patent US20250051263A1, “NOVEL IONIZABLE LIPIDS AND LIPID NANOPARTICLES AND METHODS OF USING THE SAME” (Sail Biomedicines, Inc., priority 2021, published 2025).

Legend:
[1] = TNS (pKa) assay, apparent LNP pKa; format: physicochemical; conditions: Example 5 LNP lipid:DOPE:Plant Cholesterol:DMPE-PEG2k 35:16:46.5:2.5, FLUC/EPO 1:1 mRNA, N:P 6:1
Outline: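 LNPs (0.04 mg/mL mRNA in PBS) were mixed with TNS (0.3 mM stock in DMSO) in 20 buffers spanning pH 3.0–12.0 (10 mM phosphate/borate/citrate, 150 mM NaCl), in triplicate. Fluorescence was read at 321/445 nm and fitted to a 4-parameter sigmoid. The pH at half-maximal fluorescence gives the apparent pKa.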

Balb/c mice = assay: In-vivo bioluminescent imaging after IV injection of Fluc mRNA LNP; conditions: Example 5 LNP (DOPE 35:16:46.5:2.5), IV, 5 μg FLUC + 5 μg EPO; for Bioluminescence (IV) Liver / Bioluminescence (IV) Lung / Bioluminescence (IV) Spleen / Bioluminescence (IV) Whole Body: 4-6 hours post-dose; for Spleen: Liver Ratio: ratio of bioluminescence

SMILES	pKa (TNS) [1]	Bioluminescence (IV) Liver (Balb/c mice)	Bioluminescence (IV) Lung (Balb/c mice)	Bioluminescence (IV) Spleen (Balb/c mice)	Bioluminescence (IV) Whole Body (Balb/c mice)	Spleen: Liver Ratio (Balb/c mice)
CCCCCCCCCCC(CC)OC(=O)CCCCCN(CCCCCCCC(=O)OC(CCCCCCCC)CCCCCCCC)CCNC(=O)/C=C/C(=O)NCCN(CCCCCCCC(=O)OC(CCCCCCCC)CCCCCCCC)CCCCCC(=O)OC(CC)CCCCCCCCCC (stereo not drawn) [Compound 2378, 1-octylnonyl 8-[[6-(1-ethylundecoxy)-6-oxo-hexyl]-[2-[[(E)-4-[2-[[6-(1-ethylundecoxy)-6-oxo-hexyl]-[8-(1-octylnonoxy)-8-oxo-octyl]amino]ethylamino]-4-oxo-but-2-enoyl]amino]ethyl]amino]octanoate]	6.33	1.6E+07	7.6E+03	2.2E+05	1.8E+08	0.007
CCCCCCCCCCCOC(=O)CCCCCN(CCCCCCCC(=O)OCCCC(CCCCC)CCCCC)CCNC(=O)/C=C/C(=O)NCCN(CCCCCCCC(=O)OCCCC(CCCCC)CCCCC)CCCCCC(=O)OCCCCCCCCCCC [Compound 2382, 4-pentylnonyl 8-[2-[[(E)-4-oxo-4-[2-[[8-oxo-8-(4-pentylnonoxy)octyl]-(6-oxo-6-undecoxy-hexyl)amino]ethylamino]but-2-enoyl]amino]ethyl-(6-oxo-6-undecoxy-hexyl)amino]octanoate]	6.97	1.9E+07	2.1E+04	2.1E+06	1.5E+08	0.104
CCCCCCCCCCCOC(=O)CCCCCN(CCCCCCCC(=O)OC(CCCCCC)CCCCCCCC)CCNC(=O)CCC(=O)NCCN(CCCCCCCC(=O)OC(CCCCCC)CCCCCCCC)CCCCCC(=O)OCCCCCCCCCCC (stereo not drawn) [Compound 2390, 1-hexylnonyl 8-[2-[[4-[2-[[8-(1-hexylnonoxy)-8-oxo-octyl]-(6-oxo-6-undecoxy-hexyl)amino]ethylamino]-4-oxo-butanoyl]amino]ethyl-(6-oxo-6-undecoxy-hexyl)amino]octanoate]	6.82	1.9E+07	1.2E+04	1.7E+06	1.9E+08	0.094
CCCCCCCCCCCOC(=O)CCCCCN(CCCCCCCC(=O)OCCCC(CCCCC)CCCCC)CCN1CCN(CCN(CCCCCCCC(=O)OCCCC(CCCCC)CCCCC)CCCCCC(=O)OCCCCCCCCCCC)CC1 [Compound 2397, 4-pentylnonyl 8-[2-[4-[2-[[8-oxo-8-(4-pentylnonoxy)octyl]-(6-oxo-6-undecoxy-hexyl)amino]ethyl]piperazin-1-yl]ethyl-(6-oxo-6-undecoxy-hexyl)amino]octanoate]	6.44	1.4E+07	9.4E+03	6.5E+05	6.5E+07	0.052
